# Experimental data reported in patent US20220323437A1, “METHODS FOR TREATING PULMONARY ARTERIAL HYPERTENSION” (ACTELION PHARMACEUTICALS LTD, priority 2019, published 2022).
# Where two headings read alike, the source gives them in different places.
# How the values were obtained:
# [1] = Pharmacokinetics of selexipag and ACT-333679 after oral and i.v. selexipag in subjects with stable PAH (Phase 3 switch study); format: in vivo, human; details: for AUC / Cmax: human, plasma, steady state; for AUC: read-out: AUCτ, ss Geom. Mean; for Cmax: read-out: Cmax, ss Geom. Mean
# Method: This was a prospective, multicenter, open-label, single-sequence, cross-over, Phase 3 study. Based on the dose of selexipag received at study entry, subjects were allocated to one of the following groups, selexipag 200-1000 μg b.i.d. or selexipag 1200-1600 μg b.i.d. See, FIG. 1. The study comprised the following periods:
# (ii) Treatment and observation period: The treatment and observation period included the following consecutive periods: • Period 1 included oral selexipag pre-treatment period for 1 day, in-hospital. This period started with intake of the morning dose of oral selexipag on Day 1 at Visit 2 and ended the following day, before initiation of the first infusion of i.v. selexipag. • Period 2 included i.v. selexipag treatment period for 36 hours [3 infusions], in-hospital. This period started in the morning of Day 2 at Visit 2 with the start of the first infusion of i.v. selexipag and ended in the evening of Day 3 at Visit 2 before the evening administration of oral selexipag. Administration of oral selexipag was interrupted during the i.v. selexipag treatment period. • Period 3 included oral selexipag post-treatment period for 7 to 11 day. This period started in the evening of Day 3 at Visit 2 with the administration of oral selexipag and ended 7-11 days later, at Visit 3.
# Selexipag was provided as a dry powder to be reconstituted as an injectable solution for i.v. administration. Before administration, selexipag dry powder was to be reconstituted and diluted with sterile 0.9% NaCl solution. Each subject received an i.v. selexipag dose that corresponded to the subject's individual stable dose of oral selexipag. […] See, Table 4.
# The intravenous infusion took place over a 87-minute period (2 infusions on Day 2 and 1 infusion on Day 3)
# The following PK endpoints were analyzed for selexipag and its active metabolite, ACT-333679, after oral selexipag in Period 1 and after i.v. selexipag administration in Period 2. See, FIG. 2. • The area under the plasma-concentration time curve (AUC) during a dose interval at steady state (AUCτ, ss). • The maximum plasma concentration at steady state (Cmax, ss). • The time to reach maximum plasma concentration at steady state (tmax, ss). • Trough plasma concentration at steady state (Ctrough, ss).
# [2] = Vital signs, ECG, laboratory variables and WHO FC during switch from oral to i.v. selexipag in subjects with stable PAH; format: in vivo, human
# Method: This was a prospective, multicenter, open-label, single-sequence, cross-over, Phase 3 study. Based on the dose of selexipag received at study entry, subjects were allocated to one of the following groups, selexipag 200-1000 μg b.i.d. or selexipag 1200-1600 μg b.i.d. See, FIG. 1. The study comprised the following periods: (ii) Treatment and observation period: The treatment and observation period included the following consecutive periods: • Period 1 included oral selexipag pre-treatment period for 1 day, in-hospital. This period started with intake of the morning dose of oral selexipag on Day 1 at Visit 2 and ended the following day, before initiation of the first infusion of i.v. selexipag. • Period 2 included i.v. selexipag treatment period for 36 hours [3 infusions], in-hospital. This period started in the morning of Day 2 at Visit 2 with the start of the first infusion of i.v. selexipag and ended in the evening of Day 3 at Visit 2 before the evening administration of oral selexipag. Administration of oral selexipag was interrupted during the i.v. selexipag treatment period. • Period 3 included oral selexipag post-treatment period for 7 to 11 day. This period started in the evening of Day 3 at Visit 2 with the administration of oral selexipag and ended 7-11 days later, at Visit 3. The endpoints analyzed for (i) Period 1, Period 2, and Period 3 and follow-up period combined (ii) Period 1 and Period 2 combined, and (iii) Period 2 and Period 3 combined included discontinuations due to prostacyclin-associated AEs, discontinuations due to any AEs, AEs and SAEs, prostacyclin-associated AEs, PAH-related AEs, change from baseline in vital signs (systolic blood pressure [SBP], diastolic blood pressure [DBP], and pulse rate) and body weight, ECG abnormalities, marked laboratory abnormalities, and change from baseline in WHO FC.
# [3] = Period 1 (oral selexipag), total, N = 20
# [4] = Period 2 (iv selexipag), total, N = 20
# [5] = Period 2, high dose cohort (1200-1600 μg), N = 12
# [6] = Period 2, low dose cohort (200-1000 μg), N = 8
# [7] = Period 3 (oral selexipag) + Follow-up, total, N = 20
structure (smiles),measurement,setting,value
"CC(C)N(CCCCOCC(=O)NS(C)(=O)=O)c1cnc(-c2ccccc2)c(-c2ccccc2)n1 [selexipag, 2-{4-[(5,6-diphenylpyrazin-2-yl)(propan-2-yl)amino]butoxy}-N-(methanesulfonyl)acetamide]","tmax, ss between the i.v. and oral selexipag periods",[1]; Period 2 vs Period 1,comparable
same,slope of dose proportional increase in exposure,"[1]; after i.v. selexipag, 450-1800 μg b.i.d. dose range",0.798
same,AUC,"[1]; iv, Period 2 (i.v. selexipag)",18.8 ng·h/mL
same,Cmax,"[1]; iv, Period 2 (i.v. selexipag)",7.8 ng/mL
same,AUC,[1]; Period 1 (oral selexipag),8.7 ng·h/mL
same,Cmax,[1]; Period 1 (oral selexipag),3.9 ng/mL
same,"dose-normalized geometric mean ratio (i.v./oral selexipag) for AUCτ, ss (90% CI)",[1]; i.v. to oral dose ratio 1.125,"2.13 (1.67, 2.70)"
same,"dose-normalized geometric mean ratio (i.v./oral selexipag) for Cmax, ss (90% CI)",[1]; i.v. to oral dose ratio 1.125,"1.98 (1.62, 2.43)"
same,Incidence of DBP < 50 (mmHg),[2]; [3],0 n (%)
same,Incidence of DBP decrease from baseline > 20 (mmHg),[2]; [3],1 (5.0) n (%)
same,Incidence of DBP ≥ 100 (mmHg),[2]; [3],0 n (%)
same,Incidence of SBP < 90 (mmHg),[2]; [3],0 n (%)
same,Incidence of SBP decrease from baseline > 40 (mmHg),[2]; [3],0 n (%)
same,Incidence of SBP ≥ 160 (mmHg),[2]; [3],0 n (%)
same,subjects with QTcF prolongation to >450 ms,[2]; Period 2,3 subjects
same,subjects with QTcF prolongation to >480 ms,[2]; Period 2,4 subjects
same,Incidence of DBP < 50 (mmHg),[2]; [4],5 n (%)
same,Incidence of DBP decrease from baseline > 20 (mmHg),[2]; [4],3 n (%)
same,Incidence of DBP ≥ 100 (mmHg),[2]; [4],0 n (%)
same,Incidence of SBP < 90 (mmHg),[2]; [4],2 n (%)
same,Incidence of SBP decrease from baseline > 40 (mmHg),[2]; [4],2 n (%)
same,Incidence of SBP ≥ 160 (mmHg),[2]; [4],1 n (%)
same,mean change from pre- to post-infusion in heart rate,"[2]; Period 2, infusion 1",2.1 bpm
same,mean change from pre- to post-infusion in heart rate,"[2]; Period 2, infusion 2",0.1 bpm
same,mean change from pre- to post-infusion in heart rate,"[2]; Period 2, infusion 3",3.5 bpm
same,Incidence of DBP < 50 (mmHg),[2]; [5],3 n (%)
same,Incidence of DBP decrease from baseline > 20 (mmHg),[2]; [5],2 n (%)
same,Incidence of DBP ≥ 100 (mmHg),[2]; [5],0 n (%)
same,Incidence of SBP < 90 (mmHg),[2]; [5],1 n (%)
same,Incidence of SBP decrease from baseline > 40 (mmHg),[2]; [5],1 n (%)
same,Incidence of SBP ≥ 160 (mmHg),[2]; [5],1 n (%)
same,Incidence of DBP < 50 (mmHg),[2]; [6],2 (25.0) n (%)
same,Incidence of DBP decrease from baseline > 20 (mmHg),[2]; [6],1 (12.5) n (%)
same,Incidence of DBP ≥ 100 (mmHg),[2]; [6],0 n (%)
same,Incidence of SBP < 90 (mmHg),[2]; [6],1 (12.5) n (%)
same,Incidence of SBP decrease from baseline > 40 (mmHg),[2]; [6],1 (12.5) n (%)
same,Incidence of SBP ≥ 160 (mmHg),[2]; [6],0 n (%)
same,Incidence of DBP < 50 (mmHg),[2]; [7],0 n (%)
same,Incidence of DBP decrease from baseline > 20 (mmHg),[2]; [7],2 (10.0) n (%)
same,Incidence of DBP ≥ 100 (mmHg),[2]; [7],0 n (%)
same,Incidence of SBP < 90 (mmHg),[2]; [7],0 n (%)
same,Incidence of SBP decrease from baseline > 40 (mmHg),[2]; [7],0 n (%)
same,Incidence of SBP ≥ 160 (mmHg),[2]; [7],0 n (%)
same,subjects (of the 7 with QTcF prolongation in Period 2) who already had QTcF prolongation to >450 ms in Period 1,[2]; Visit 2 Day 2 prior to the start of i.v. infusion,6
same,AE of hypotension,[2]; any subject,no AE of hypotension
same,changes in systolic blood pressure of >40 mmHg,[2]; any subject,No changes
same,"hemoglobin, mean change from baseline",[2]; at Visit 3 (Day 12±2 days),1.2 g/L
same,"hemoglobin, mean change from baseline",[2]; baseline (129.4 g/L) to Visit 2 Day 3,-5.7 g/L
same,changes in WHO FC,"[2]; during the study, any subject",No changes
same,changes from baseline in other hematology and clinical chemistry variables,"[2]; human, in vivo",unremarkable
